In patent publication US20120082727A1, “USE OF MAGNESIUM STEARATE IN DRY POWDER FORMULATIONS FOR INHALATION” (CHIESI FARMACEUTICI S.p.A., priority 2010, published 2012):

Test: Chemical stability of dry powder formulations on storage in glass vials, residual test compound and hydrolysis product by UPLC
Format: physicochemical
Settings: 25 °C, 60% rel. humidity; for CHF 5551.02 values (%): hydrolysis degradation product
Experimental: Dry powder formulations were prepared comprising as a carrier either particles of alpha-lactose monohydrate 212-355 microns alone (coarse) or coated with magnesium stearate (coated). Said coated particles were obtained by mixing alpha-lactose monohydrate with 1% magnesium stearate in a Turbula mixer for 4 hours.
Samples of the manufactured mixtures were filled in glass vials and stored under stressing conditions ([…]) in comparison to a sample stored under long tem conditions (25 ° C., 60% relative humidity).
The percentage amount of residual test compound and of the degradation product due to hydrolysis, (R)-1-hydroxy-(2-oxo-2-thiophen-2-yl-ethyl)-1-azonia-bicyclo[2.2.2]octane; chloride quoted as CHF 5551.02, was determined in the two formulations by ultra performance liquid chromatography (UPLC) in comparison to the active ingredient without the carrier (API). The variation of CHF 5551.2 content with the time is also plotted in FIG. 3.

O=C(OC(c1cccc(F)c1)c1cccc(F)c1)O[C@H]1C[N+]2(CC(=O)c3cccs3)CCC1CC2.[Cl-] [Test compound, (R)-3-[bis-(3-fluoro-phenyl)-methoxycarbonyloxy]-1-(2-oxo-2-thiophen-2-yl-ethyl)-1-azonia-bicyclo[2.2.2]octane; chloride]
Test compound values (%) (0 days): 100.0%
Test compound values (%) (2 days): 99.9%
Test compound values (%) (4 days): 99.9%
Test compound values (%) (7 days): 99.9%
Test compound values (%) (9 days): 99.9%
Test compound values (%) (11 days): 99.9%
Test compound values (%) (14 days): 100.0%
CHF 5551.02 values (%) (0 days): 0.08%
CHF 5551.02 values (%) (2 days): 0.20%
CHF 5551.02 values (%) (4 days): 0.29%
CHF 5551.02 values (%) (7 days): 0.24%
CHF 5551.02 values (%) (9 days): 0.28%
CHF 5551.02 values (%) (11 days): 0.29%
CHF 5551.02 values (%) (14 days): 0.23%
